# pIC50: −log10 of the molar value.
# Target: human PTGES (Homo sapiens (Human), UniProt O14684)
# Assay: Human PTGES biochemical enzyme inhibition assay (conversion of PGH2 to PGE2, TR-FRET)
# Conditions: Enzymatic conversion of PGH2 to PGE2; read-out: Human PTGES IC50
# Protocol: Human PTGES Biochemical Enzyme Inhibition Assay:
# PTGES (Microsomal prostaglandin E synthase 1) is an enzyme that converts prostaglandin H2 (PGH2) to prostaglandin E2 (PGE2) in the presence of reduced glutathione (GSH).
# Recombinant proteins (human isoforms) of PTGES containing a FLAG tag, expressed in baculovirus infected insect cells (Hi-5) and purified by affinity chromatography was used as enzyme in the assay. Substrate was prostaglandin H2 (Cayman Chemicals).
# 4 ul of a solution of human PTGES in assay buffer [100 mM sodium phosphate pH 7.2, 2.5 mM Glutathion reduced, 1 mM EDTA, 0.01% BSA, 0.4 mM DTT, 0.15 mM n-dodecylmaltoside] was added to the well containing test compound and incubated for 15-20 minutes to allow binding of the compound to the enzyme prior to the enzymatic reaction. The reaction was started by addition of 1 ul of an ice cold solution containing PGH2 (40 nM in assay buffer resulting in a final concentration of 8 nM PGH2 in the assay). […] The concentration of each isoform of PTGES was adapted to the activity of the respective enzyme preparation to maintain linear reaction properties within the reaction time. […] The reaction was stopped by addition of 1 ul of a solution containing 15 mM SnCl2 and 400 mM KF in water. SnCl2 converts the remaining unstable PGH2 to stable PGF2alpha. Then, 3 ul of the a first detection solution containing PGE2-D2 (Cisbio Bioassays, TR-FRET reagent, diluted according to the manufacturer's recommendation, typically 1:20 in reconstitution buffer) was added. […] The resulting mix was incubated overnight at 4° C. to allow the formation of a complex of PGE2 and the detection reagents. […] Dilution series were made prior to the assay in a 100 fold concentrated form by serial dilution. IC50 values were calculated by 4-Parameter fitting.
# Chain of human PTGES (O14684 whole entry): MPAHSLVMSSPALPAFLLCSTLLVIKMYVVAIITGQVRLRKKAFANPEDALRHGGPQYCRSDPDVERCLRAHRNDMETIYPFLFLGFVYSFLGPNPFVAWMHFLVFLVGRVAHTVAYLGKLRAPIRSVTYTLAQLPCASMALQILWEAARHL
row,Compound,pIC50
1,"Cc1c(NC(=O)C(c2ccc(-c3cncc(C(F)(F)F)c3)c(F)c2)C2CCCC2)cccc1C(C)CC(=O)O (single isomer, unassigned; stereoisomer 3) [Example 118, 3-{3-[(Cyclopentyl{3-fluoro-4-[5-(trifluoromethyl)pyridin-3-yl]phenyl}acetyl)amino]-2-methylphenyl}butanoic acid, Stereoisomer 3]",6.42
2,"Cc1c(CCC(=O)O)cccc1NC(=O)C(c1cc(F)c(-c2cncc(Cl)c2)cc1F)C1CCCC1 (racemic) [Example 178, (R/S) 3-[3-({[4-(5-chloropyridin-3-yl)-2,5-difluorophenyl](cyclopentyl)acetyl}amino)-2-methylphenyl]propanoic acid]",6.57
3,"Cc1c(CCC(=O)O)cccc1NC(=O)C(c1ccc(-c2cncc(C(C)(C)O)c2)cc1)C1CCCC1 (racemic) [Example 9, (R/S) 3-{3-[(Cyclopentyl{4-[5-(2-hydroxypropan-2-yl)pyridin-3-yl]phenyl}acetyl)amino]-2-methylphenyl}propanoic acid]",5.45
4,"Cc1c(NC(=O)C(c2ccc(-c3cncc(C(F)(F)F)c3)c(F)c2)C2CCC2)cccc1C(C)CC(=O)O (mixture of isomers) [Example 145, (3R/S)-3-(3-{[(2R/S)-2-Cyclobutyl-2-{3-fluoro-4-[5-(trifluoromethyl)pyridin-3-yl]phenyl}acetyl]amino}-2-methylphenyl)butanoic acid]",7.30
5,"Cc1c(NCC(=O)O)cccc1NC(=O)C(c1ccc(-c2cncc(C(F)(F)F)c2)cc1)C1CCCC1 (racemic) [Example 171, (R/S) N-{3-[(cyclopentyl{4-[5-(trifluoromethyl)pyridin-3-yl]phenyl}acetyl)amino]-2-methylphenyl}glycine]",6.50
6,"Cc1c(NC(=O)C(c2ccc(-c3cncc(C(F)(F)F)c3)cc2)C2CCCC2)cccc1OCC(=O)O (single isomer, unassigned; (-)) [Example 34, (−) {3-[(Cyclopentyl{4-[5-(trifluoromethyl)pyridin-3-yl]phenyl}acetyl)amino]-2-methylphenoxy}acetic acid]",8.01
7,"Cc1c(CCC(=O)O)cccc1NC(=O)C(c1cc(F)c(-c2cncc(C(F)(F)F)c2)cc1F)C1CCCC1 (racemic) [Example 179, (R/S) 3-{3-[(cyclopentyl{2,5-difluoro-4-[5-(trifluoromethyl)pyridin-3-yl]phenyl}acetyl)amino]-2-methylphenyl}propanoic acid]",7.07
8,"COc1ccc(NC(=O)C(c2ccc(-c3cncc(C(F)(F)F)c3)cc2)C2CCCC2)c(C)c1CCC(=O)O (racemic) [Example 40, (R/S) 3-{3-[(Cyclopentyl{4-[5-(trifluoromethyl)pyridin-3-yl]phenyl}acetyl)amino]-6-methoxy-2-methylphenyl}propanoic acid]",7.55
9,"Cc1c(CCC(=O)O)cccc1NC(=O)C(c1ccc(-c2cncc(Cl)c2)cc1)C1CCCCC1 (racemic) [Example 65, (R/S) 3-[3-({[4-(5-Chloropyridin-3-yl)phenyl](cyclohexyl)acetyl}amino)-2-methylphenyl]propanoic acid]",6.71
10,"Cc1ncc(-c2ccc(C(C(=O)Nc3cccc(CC(C)C(=O)O)c3C)C3CCCC3)cc2)cc1Cl (single isomer, unassigned; stereoisomer 1) [Example 83, 3-[3-({[4-(5-Chloro-6-methylpyridin-3-yl)phenyl](cyclopentyl)acetyl}amino)-2-methylphenyl]-2-methylpropanoic acid, Stereoisomer 1]",4.93
11,"Cc1c(NC(=O)C(c2ccc(-c3cncc(Cl)c3)cc2)C2CCCC2)cccc1C(CC(=O)O)C1CC1 (mixture of isomers) [Example 110, (3R/S)-3-[3-({(2R/S)-2-[4-(5-chloropyridin-3-yl)phenyl]-2-cyclopentylacetyl}amino)-2-methylphenyl]-3-cyclopropylpropanoic acid]",7.26
12,"Cc1c(CCC(=O)O)cccc1NC(=O)C(c1ccc(-c2ccc(F)nc2)cc1)C1CCCC1 (racemic) [Example 19, (R/S) 3-[3-({Cyclopentyl[4-(6-fluoropyridin-3-yl)-phenyl]acetyl}amino)-2-methylphenyl]propanoic acid]",6.26
13,"Cc1c(CCC(=O)O)cccc1NC(=O)C(c1ccc(-c2cnc(F)c(C(F)(F)F)c2)c(F)c1)C1CCCC1 (single isomer, unassigned; (-)) [Example 197]",7.71
14,"Cc1ncc(-c2ccc(C(C(=O)Nc3cccc(CCC(=O)O)c3C)C3CCC3)cc2)cc1F (racemic) [Example 62, (R/S) 3-[3-({[4-(5-Fluoro-6-methylpyridin-3-yl)phenyl](cyclobutyl)acetyl}amino)-2-methylphenyl]propanoic acid]",6.83
15,"Cc1ncc(-c2ccc(C(C(=O)Nc3cc(F)cc(CCC(=O)O)c3C)C3CCCC3)cc2)cc1Cl (racemic) [Example 169, (R/S) 3-[3-({[4-(5-chloro-6-methylpyridin-3-yl)phenyl](cyclopentyl)acetyl}amino)-5-fluoro-2-methylphenyl]propanoic acid]",6.60
16,"Cc1cc(C(C(=O)Nc2cccc(CCC(=O)O)c2C)C2CCCC2)c(Cl)cc1-c1cncc(Cl)c1 (racemic) [Example 172, (R/S) 3-[3-({[2-chloro-4-(5-chloropyridin-3-yl)-5-methylphenyl](cyclopentyl)acetyl}amino)-2-methylphenyl]propanoic acid]",5.73
17,"Cc1c(NC(=O)C(c2ccc(-c3cncc(Cl)c3)c(F)c2)C2CCCC2)cccc1C(C)CC(=O)O (mixture of isomers) [Example 125, (3R/S)-3-[3-({(2R/S)-2-[4-(5-Chloropyridin-3-yl)-3-fluorophenyl]-2-cyclopentylacetyl}amino)-2-methylphenyl]butanoic acid]",7.64
18,"Cc1ncc(-c2ccc(C(C(=O)Nc3cccc(CCC(=O)O)c3C)C3CCC3)cc2)cc1Cl (racemic) [Example 61, (R/S) 3-[3-({[4-(5-chloro-6-methylpyridin-3-yl)phenyl](cyclobutyl)acetyl}amino)-2-methylphenyl]propanoic acid]",7.49
19,"Cc1cncc(-c2ccc(C(C(=O)Nc3cccc(C(C)CC(=O)O)c3C)C3CCCC3)cc2)c1 (mixture of isomers) [Example 94, (3R/S)-3-[3-({(2R/S)-2-Cyclopentyl-2-[4-(5-methylpyridin-3-yl)phenyl]acetyl}amino)-2-methylphenyl]butanoic acid]",7.49
20,"Cc1c(NC(=O)C(c2ccc(-c3cncc(Cl)c3)c(F)c2)C2CCCC2)cccc1C(C)CC(=O)O (single isomer, unassigned; stereoisomer 4) [Example 129, 3-[3-({[4-(5-Chloropyridin-3-yl)-3-fluorophenyl](cyclopentyl)acetyl}amino)-2-methylphenyl]butanoic acid, Stereoisomer 4]",8.25
21,"Cc1c(CCC(=O)O)cc(F)cc1NC(=O)C(c1ccc(-c2cncc(C(F)(F)F)c2)cc1)C1CCCC1 (racemic) [Example 167, (R/S) 3-{3-[(cyclopentyl{4-[5-(trifluoromethyl)pyridin-3-yl]phenyl}acetyl)amino]-5-fluoro-2-methylphenyl}propanoic acid]",6.53
22,"Cc1c(CCC(=O)O)cccc1NC(=O)C(c1ccc(-c2cncc(C(F)(F)F)c2)c(F)c1)C1CCCC1 (single isomer, unassigned; (+)) [Example 49, (+) 3-{3-[(Cyclopentyl{3-fluoro-4-[5-(trifluoromethyl)pyridin-3-yl]phenyl}acetyl)amino]-2-methylphenyl}propanoic acid]",6.28
23,"CCOc1cncc(-c2ccc(C(C(=O)Nc3cc(F)cc(CCC(=O)O)c3C)C3CCCC3)cc2)c1 (racemic) [Example 170, (R/S) 3-[3-({[4-(5-ethoxypyridin-3-yl)phenyl](cyclopentyl)acetyl}amino)-5-fluoro-2-methylphenyl]propanoic acid]",6.24
24,"Cc1ncc(-c2ccc(C(C(=O)Nc3cccc(CCC(=O)O)c3C)C3CCCC3)cc2Cl)cc1Cl (racemic) [Example 176, (R/S) 3-[3-({[3-chloro-4-(5-chloro-6-methylpyridin-3-yl)phenyl](cyclopentyl)acetyl}amino)-2-methylphenyl]propanoic acid]",6.70
25,"Cc1c(NC(=O)C(c2ccc(-c3cncc(Cl)c3)c(F)c2)C2CCC2)cccc1C(C)CC(=O)O (single isomer, unassigned; stereoisomer 1) [Example 150, 3-[3-({[4-(5-Chloropyridin-3-yl)-3-fluorophenyl](cyclobutyl)acetyl}amino)-2-methylphenyl]butanoic acid, Stereoisomer 1]",5.58
26,"Cc1c(CCC(=O)O)cccc1NC(=O)C(c1ccc(-c2cncc(C(F)(F)F)c2)c(F)c1)C1CCCC1 (racemic) [Example 47, (R/S) 3-{3-[(Cyclopentyl{3-fluoro-4-[5-(trifluoromethyl)pyridin-3-yl]phenyl}acetyl)amino]-2-methylphenyl}propanoic acid]",7.80

# From patent publication US10172814B2, “Substituted pyridyl-cycloalkyl-carboxylic acids, compositions containing them and medical uses thereof” (BAYER PHARMA AKTIENGESELLSCHAFT, priority 2014, dated 2019)
